In brackets after ≈: the same amount, converted by molar mass. Like-named read-outs stand apart in the source and are kept apart here. Ends that are not written are not given here. Peptide text beside a SMILES is read from it.
Tests used:
[1] = test system: Salmonella Enteritidis; assay type: cell-based
Text: (§1) Putative antimicrobial peptides were synthesized by GeneScript. A-list antimicrobial peptides re-synthesized by GeneScript. P2_CCH, P5_CCH, and P5_CCH_A19K were each synthesized under two conditions: standard synthesis using TFA, and the other with TFA-removal using acetate as a counter-ion. A MIC method, adapted for use with cationic antimicrobial peptides, was used to evaluate MIC antimicrobial activity (Hancock 1999).
(§2) The following data are presented to show the activity (MIC/MBC in μg/mL) of certain antimicrobial peptides described herein relative to a modified/synthetic version having a specified substitution. While data presented in tables above may be presented again, or may be represented in data provided in the tables below, such duplication is believed to assist the reader in readily noting comparisons. Different Run Numbers noted in the following tables denotes experiments conducted on different days, with each run reflecting multiple n values.

[2] = test system: Escherichia coli—Carbapenemase-producing organism; Klebsiella pneumoniae carbapenemase; assay type: cell-based
Outline: (§3)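 MIC/MBC of cationic antimicrobial peptides by a broth method adapted for cationic peptides, against E. coli ATCC 25922 and clinical MDR isolates (ESBL, KPC, NDM). Some peptides made as TFA or acetate salts. Each run on a different day with multiple replicates.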

[3] = test system: Escherichia coli—Carbapenemase-producing organism; New-Dehli Metallobetalactamase; assay type: cell-based
Outline: as §3

[4] = test system: Escherichia coli—Extended spectrum beta-lactamase; assay type: cell-based
Outline: as §3

[5] = test system: Escherichia coli—ATCC 25922 “wild type”; assay type: cell-based
Outline: as §3

[6] = test system: Escherichia coli: ATCC 9723H; assay type: cell-based; settings: ATCC 9723
Outline: (§4)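 MIC and MBC were run by broth microdilution adapted from Hancock cationic-AMP and CLSI methods, in Mueller Hinton broth (+5% lysed horse blood for S. pyogenes) at about 5×10^5 CFU/mL. Peptides came from two-fold 10× stocks (2560–5 μg/mL) and were incubated 16-24 h at 37 °C. For MBC, the MIC well and two more-concentrated wells were plated on MHA for 24 h at 37 °C.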

[7] = test system: Streptococcus pyogenes: unknown strain, hospital isolate; assay type: cell-based; settings: unknown strain, hospital isolate
Outline: as §4

[8] = test system: Staphylococcus aureus: ATCC 6538P; assay type: cell-based; settings: ATCC 6538
Outline: as §4

[9] = test system: Mycobacterium smegmatis (MC^2155); assay type: cell-based; settings: Mycobacterium (MC^2155)
Outline: as §4

[10] = test system: Salmonella Heidelberg (MDR); assay type: cell-based
Text: (§5) The ATCC (American Type Culture Collection) strains received from Cedarlane. Multi drug resistant (MDR) strains, as clinical isolates, were received from the laboratory of Dr. Linda Hoang.
as §1, §2

[11] = test system: Staphylococcus aureus—ATCC 29213 “wild type”; assay type: cell-based
Method: (§6) Independent experiments were conducted with different strains of Staphylococcus aureus—ATCC 29213 “wild type”; and Staphylococcus aureus—Methicillin resistant Staphylococcus aureus.
as §5, §1, §2

[12] = test system: Methicillin resistant Staphylococcus aureus; assay type: cell-based
Method: as §6, §5, §1, §2

[13] = Hemolysis test (HC50); settings: red blood cells
Method: Peptides were tested for activity using as minimum inhibitory concentration (MIC), and minimum bactericidal concentration (MBC) determinations. For certain peptides, a hemolysis test was also conducted to determine HC50 (μg/mL) as an indicator of hemolytic activity based on the concentration of an antimicrobial compound that kills 50% red blood cells.
In Table 27, the designations P2, P2M, P3, P3M, P4, P4M, P5, P5M, P6, and P6M refer to peptides P2_CCH, P2_CCH_T15K_P7R, P3_CCH, P3_CCH_D8K_Q23C, P4_CCH, P4_CCH_P31K, P5_CCH, P5_CCH_A19K, P6_CCH, and P6_CCH_S12K, respectively, as defined above.

| Minimum Inhibitory Concentration (MIC) [1] [µg/mL] | Minimum Inhibitory Concentration (MIC) [2] [µg/mL] | Minimum Inhibitory Concentration (MIC) [3] [µg/mL] | Minimum Inhibitory Concentration (MIC) [4] [µg/mL] | Minimum Inhibitory Concentration (MIC) [5] [µg/mL] | MIC [6] [µg/mL] | MIC [7] [µg/mL] | MIC [8] [µg/mL] | MIC [9] [µg/mL] | Minimum Inhibitory Concentration (MIC) [10] [µg/mL] | Minimum Inhibitory Concentration (MIC) ([11]; ATCC 29213) [µg/mL] | Minimum Inhibitory Concentration (MIC) ([12]; Methicillin resistant) [µg/mL] | Molecule | MBC [6] [µg/mL] | MBC [7] [µg/mL] | MBC [8] [µg/mL] | other results |
| --- | --- | --- | --- | --- | --- | --- | --- | --- | --- | --- | --- | --- | --- | --- | --- | --- |
| 64 to 128 | 4 to 16 | 4 to 32 | 8 to 32 | 4 to 16 | 16 (≈ 6.18 µM) | 128 (≈ 49.4 µM) | 4 (≈ 1.54 µM) | 2 (≈ 0.772 µM) | 32 to 128 | 4 to 8 | 2 to 8 | CC[C@H](C)[C@H](NC(=O)[C@@H](NC(=O)[C@@H]1CCCN1C(=O)[C@H](Cc1ccccc1)NC(=O)[C@@H](N)Cc1ccccc1)[C@@H](C)CC)C(=O)N[C@@H](C)C(=O)N[C@@H](CCCNC(=N)N)C(=O)N[C@@H](CC(C)C)C(=O)N[C@@H](C)C(=O)N[C@@H](C)C(=O)N[C@@H](CCCCN)C(=O)N[C@H](C(=O)N[C@H](C(=O)N1CCC[C@H]1C(=O)N[C@@H](CO)C(=O)N[C@@H](CC(C)C)C(=O)N[C@H](C(=O)N[C@@H](CS)C(=O)N[C@@H](C)C(=O)N[C@H](C(=O)N[C@H](C(=O)N[C@@H](CCCCN)C(=O)N[C@@H](CCCCN)C(=O)N[C@@H](CS)C(=O)O)[C@@H](C)O)C(C)C)C(C)C)[C@@H](C)CC)C(C)C [Peptide P5_CCH] (H-FFPIIARLAAKVIPSLVCAVTKKC-OH; N-terminus and C-terminus assumed) | 32 (≈ 12.4 µM) | 128 (≈ 49.4 µM) | 16 (≈ 6.18 µM) | MBC [9]: >256 µg/mL |
| 16 to 64 | 4 to 16 | 4 to 16 | 4 to 16 | 4 to 16 | – | – | – | – | 16 to 64 | 2 to 8 | 2 to 8 | CC[C@H](C)[C@H](NC(=O)[C@@H](NC(=O)[C@@H]1CCCN1C(=O)[C@H](Cc1ccccc1)NC(=O)[C@@H](N)Cc1ccccc1)[C@@H](C)CC)C(=O)N[C@@H](C)C(=O)N[C@@H](CCCNC(=N)N)C(=O)N[C@@H](CC(C)C)C(=O)N[C@@H](C)C(=O)N[C@@H](C)C(=O)N[C@@H](CCCCN)C(=O)N[C@H](C(=O)N[C@H](C(=O)N1CCC[C@H]1C(=O)N[C@@H](CO)C(=O)N[C@@H](CC(C)C)C(=O)N[C@H](C(=O)N[C@@H](CS)C(=O)N[C@@H](CCCCN)C(=O)N[C@H](C(=O)N[C@H](C(=O)N[C@@H](CCCCN)C(=O)N[C@@H](CCCCN)C(=O)N[C@@H](CS)C(=O)O)[C@@H](C)O)C(C)C)C(C)C)[C@@H](C)CC)C(C)C [Peptide P5_CCH_A19K] (H-FFPIIARLAAKVIPSLVCKVTKKC-OH; N-terminus and C-terminus assumed) | – | – | – | HC50 ([13]; RPMI): 64 to 128 µg/mL |
| 64 to 128 | 8 | 16 to 32 | 8 to 16 | 8 to 16 | 16 to 64 | 128 (≈ 39.1 µM) | 128 to 256 | 2 (≈ 0.612 µM) | 64 | – | – | CC[C@H](C)[C@H](NC(=O)[C@H](CO)NC(=O)[C@H](CCCCN)NC(=O)CNC(=O)[C@@H](NC(=O)[C@@H](NC(=O)[C@H](CCCCN)NC(=O)[C@@H](NC(=O)[C@@H](NC(=O)[C@H](CCC(=O)O)NC(=O)[C@H](Cc1c[nH]c2ccccc12)NC(=O)[C@H](CC(C)C)NC(=O)CN)[C@@H](C)O)[C@@H](C)CC)[C@@H](C)O)[C@@H](C)O)C(=O)N[C@@H](C)C(=O)N[C@@H](CC(C)C)C(=O)N[C@@H](CC(N)=O)C(=O)N[C@@H](CC(C)C)C(=O)N[C@@H](CC(C)C)C(=O)N[C@@H](CC(=O)O)C(=O)N[C@@H](CCCCN)C(=O)N[C@H](C(=O)N[C@@H](CCCCN)C(=O)N[C@@H](CS)C(=O)N[C@@H](CCCCN)C(=O)N[C@H](C(=O)N[C@@H](C)C(=O)NCC(=O)NCC(=O)N[C@@H](CS)C(=O)N1CCC[C@H]1C(=O)N1CCC[C@H]1C(=O)O)[C@@H](C)CC)[C@@H](C)CC [Peptide P6_CCH] (H-GLWETIKTTGKSIALNLLDKIKCKIAGGCPP-OH; N-terminus and C-terminus assumed) | 16 to 64 | 128 (≈ 39.1 µM) | 256 (≈ 78.3 µM) | Minimum Inhibitory Concentration (MIC) ([11]; S. aureus ATCC 29213, Gram positive): 128+ ug/mL; Minimum Inhibitory Concentration (MIC) ([12]; MRSA, Gram positive): 128+ ug/mL; MBC ([12]; Methicillin resistant): 256 µg/mL (≈ 78.3 µM) |
| 32 to 64 | 8 | 4 to 8 | 2 to 8 | 4 to 8 | – | – | – | – | 16 to 64 | 64 to 128 | 32 to 64 | FFPRVLRLANKFLPKIYCALPKSVGN [P2_CCH_T15K_P7R] | – | – | – | MBC [2]: 8 µg/mL; MIC [2]: 8 µg/mL; HC50 ([13]; HC50 (hemolysis test)): 64 µg/mL |

Reference: patent US12280090B2, “Antimicrobial peptides” (priority 2018, dated 2025)
